Laboratory results taken from patent US12521378B2, “Administration of R-beta-hydroxybutyrate salt blend and related compounds in humans” (priority 2016, dated 2026).

Experiments:
[1] = 2 km time test on wingate cycle ergometer; format: in vivo, human; settings: 10 g, 30 minutes before 2 km time test
Method: Five healthy individual were given a 2 km time test (e.g., 4 cycles of low to severely intense exercise on a […] ergometer) 30 minutes after administration of a placebo, 10 g of R-beta-hydroxybutyrate, and 10 g of […]. FIG. 12 illustrates the average blood ketone levels and FIG. 13 illustrates the percentage improvement over the administration of the placebo. […] FIG. 14 illustrates the perceived exertion experienced by the individuals. […] Thus, the R-beta-hydroxybutyrate has an unexpectedly impact on ketone levels and performance.

[2] = blood ketone levels after R-, L- or D,L-beta-hydroxybutyrate; format: in vivo, human; settings: 5 g or 10 mg (so in the source)
Method: Individuals were 5 g or 10 mg of R-beta-hydroxybutyrate, L-beta-hydroxybutyrate, or D,L-beta-hydroxybutyrate and blood ketone levels were measured.

[3] = Respiratory exchange ratio (RER); format: in vivo, human; settings: 10 subjects
Method: 10 subjects were administered approximately 5 g or 10 g of D,L-beta-hydroxybutyrate or R-beta-hydroxybutyrate, and Respiratory exchange ratio was examined (RER, a ratio of carbon dioxide/oxygen).

[4] = Bench Press strength and power testing at 50% of 1-RM; format: in vivo, human; settings: 5 g; for increase in minimum power: averages of power measurements
Method: FIGS. 19A-19B illustrate the results of the testing. […] Thus, R-beta-hydroxybutyrate experienced a greater than expected impact when compared with D,L-beta-hydroxybutyrate. The individuals were also tested for power. FIG. 19C illustrates the results of the testing (e.g., averages of power measurements). As illustrated, R-beta-hydroxybutyrate administration increased minimum power by 26%, while the DL-beta-hydroxybutyrate administration raised power by 2%.

[5] = mental acuity testing (tracking, saccades, processing speed, response accuracy); format: in vivo, human
Method: Processing speed testing was performed (e.g, processing speed is considered a true measure of cognitive performance). […] Response accuracy was also tested.

[6] = glucose challenge test (75 g glucose), blood glucose levels; format: in vivo, human
Method: Five subjects were subject to three separate glucose challenge tests (75 g glucose) after administration of 500 mg berberine (BB), 250 mg of dihydroberberine (DHBB) or 500 dihydroberberine. Blood was drawn prior to administration and after 30, 60, 90, 120, and 180 minutes. FIG. 1 illustrates the results of the administration protocol. FIG. 1 illustrates the average blood glucose level of the 5 subjects at each of the times.
As in Example 1, five subjects were subject to three separate glucose challenge tests (75 g glucose) after administration of 500 mg berberine (BB), 250 mg of dihydroberberine (DHBB) or 500 dihydroberberine. FIG. 2 illustrates a ranking which compositions caused the lowest blood glucose levels during a oral glucose challenge. […] For example, in some individuals (e.g., individuals with moderate glucose tolerance) may achieve better blood glucose control when administered a lower dosage of DHBB.
Five subjects were subject to three separate glucose challenge tests (75 g glucose) approximately 25 minutes after administration of 500 mg berberine (BB), 250 mg of dihydroberberine (DHBB) or 500 dihydroberberine. Blood was drawn prior to administration and after 30, 60, 90, 120, and 180 minutes and tested for glucose levels. FIG. 4 illustrates the results of the administration protocol.

[7] = glucose challenge test, blood ketone levels; format: in vivo, human; settings: 250 mg DHBB alone or with 5 mg sodium beta-hydroxybutyrate; one subject; 120 minutes
Method: A subject was subject to a glucose challenge test (75 g glucose) after administration of 250 mg dihydroberberine (DHBB) and a glucose challenge test after administration of 250 mg dihydroberberine (DHBB) along with 5 mg of beta-hydroxybutyrate (e.g., 5 mg sodium beta-hydroxybutyrate).

[8] = lifespan of rats on low-fat standard American diet; format: in vivo, Fischer 344 rats; settings: supplemented versus standard diet at 20 months
Text: Sixteen rats (Fischer 344 rats) were studied for the effect of R-beta-hydroxybutyrate on lifespan. A first grouping of eight rats were fed an equivalent to a low-fat standard American diet and a second grouping of eight rats were fed the same equivalent to a low-fat standard American diet and supplemented with R-beta-hydroxybutyrate salt (e.g., sodium R-beta-hydroxybutyrate). The second grouping of rats were supplemented with the R-beta-hydroxybutyrate salt at middle age. FIG. 7 illustrates the average lifespans of the groupings of rats. […] Since the rat study was performed as an approximation of impact in humans, the addition of R-beta-hydroxybutyrate to a standard American low-fat diet may increase lifespan.

[9] = motor function testing by eye movements in an individual with Parkinson's disease; format: in vivo, human; settings: approximately 10 g; approximately 30 minutes after administration; one Parkinson's patient, pre vs post
Text: The testing included a right-eye visual and motor performance apparatus to track motor function through eye movements. FIG. 8 illustrates chart illustrating the results of the motor skill testing following an example implementation of administration of R-beta-hydroxybutyrate. FIG. 8 illustrates average results for a similar non-Parkinson's population, the patient pre-administration of R-beta-hydroxybutyrate, and the patient post-administration of R-beta-hydroxybutyrate.

[10] = Xray absorptiometry, fat mass and lean mass; format: in vivo, human; settings: 5 g twice daily for 3 months; one individual
Method: Xray absorptiometry was performed to determine the impact of the administration of R-beta-hydroxybutyrate on fat loss. […] As illustrated, the individual experienced a greater than approximately 10% decrease in fat mass. […] Thus, the R-beta-hydroxybutyrate may cause weight loss through fat loss rather than lean mass (e.g., muscle mass).

Lipoprotien lipase (LPL) = test: average Lipoprotien lipase (LPL) in rats; format: in vivo; settings: standard diet plus salt equivalent to 5 g or 10 g; 10 rats per grouping
Text: FIG. 11 illustrates the average Lipoprotien lipase (LPL) in the rats. Since LPL is needed to transport fat into adipose tissue, lowering LPL levels would inhibit fat storage and encourage usage of fat storages.

C-reactive protein = C-reactive protein levels after administration; format: in vivo, human; settings: one individual with high C-reactive protein; 62.5 before administration
Method: (§1) An individual with high C-reactive protein, which is associated with inflammation, was administered R-beta-hydroxybutyrate. […] In addition, fasting glucose was decreased (e.g., 104 to 95).

[11] = fasting glucose after administration; format: in vivo, human; settings: same individual; 104 before administration
Method: as §1

superoxide dismutase 2 = superoxide dismutase 2 levels in the brain; format: in vivo; settings: e.g. 10 g; standard or ketogenic diet
Method: Individuals were given a standard diet or ketogenic diet. Some individuals were administered R-beta-hydroxybutyrate (e.g., 10 g).

[12] = perceived hunger, satiety and perceived energy; format: in vivo, human
Method: FIGS. 18A-18C illustrate the results of the testing. FIG. 18A illustrates perceived hunger, FIG. 18B illustrates perceived satiety, and FIG. 18C illustrates perceived energy. […] R-beta-hydroxybutyrate sustained elevated perceived energy levels from 0 minutes at 60, 90, and 120 minutes post consumption, as opposed to D,L-beta-hydroxybutyrate.

[13] = blood ketone level over time after administration of sodium beta-hydroxybutyrate; format: in vivo, human; settings: 5 mg of sodium R-beta-hydroxybutyrate (so in the source); average of 4 subjects; 30, 60, 90, 120 and 180 minutes
[14] = before vs after, 5 resistance trained males, 50% of 1-RM

With CC(O)CC(=O)O (racemic) [D,L-beta-hydroxybutyrate, reference compound] the perceived exertion [1] was “did not feel an impact in perceived exertion”, the blood ketone levels [2] was “does not lower blood ketone levels to the same extent as R-beta-hydroxybutyrate” and the “increase of RER” value ([3]; D,L-beta-hydroxybutyrate, more than 5 g) was 17%. The “increase in minimum power” value [4] was 2%, the “decrease in Bench Press test result” value [4, 14] was 2% and the “increase of response accuracy” value ([5]; DL-beta-hydroxybutyrate) was 12.7%. For the same compound, the “Horizontal Saccades, performance improvement” value ([5]; e.g. 5 g) was 3.2%, the “improvement of processing speed” value ([5]; e.g. 5 g) was “approximately 18%” and the “Circular Tracking, improvement in tracking accuracy” value ([5]; e.g. 10 g) was “no improvement”. The “Vertical Tracking, improvement of performance” value ([5]; e.g. 10 g) was 4.6%.

For COc1ccc2c(c1OC)CN1CCc3cc4c(cc3C1=C2)OCO4 [dihydroberberine], the “control of blood glucose levels during oral glucose challenge (ranking)” value ([6]; 250 mg DHBB vs 500 mg DHBB, 5 subjects) was “control blood glucose levels better than even 500 mg of DHBB”, the “blood glucose during oral glucose challenge versus berberine” value ([6]; 250 mg or 500 dihydroberberine vs 500 mg berberine, 5 subjects) was “lower blood glucose than administration of berberine in most individuals” and the “fluctuations in blood glucose level” value ([6]; 75 g glucose challenge, 250 mg or 500 dihydroberberine vs 500 mg berberine, average of 5 subjects, 30-180 minutes) was “less fluctuations in blood glucose level than berberine”. The “blood glucose levels relative to fasting blood glucose” value ([6]; 75 g glucose challenge, dihydroberberine vs 500 mg berberine, 5 subjects) was “keep blood glucose levels closer to fasting blood glucose than berberine”, the “moderation of blood glucose levels” value ([6]; individuals with moderate baseline glucose levels, glucose challenge about 25 minutes after administration, vs 500 mg berberine) was “moderates blood glucose levels better than even double the quantity of berberine” and the “blood ketone levels after glucose challenge” value [7] was “unexpectedly increased even 120 minutes after the glucose challenge”.

In the case of C[C@H](O)CC(=O)O [L-beta-hydroxybutyrate], the blood ketone levels [2] is reported as “does not decrease blood ketones”.

For C[C@@H](O)CC(=O)O [R-beta-hydroxybutyrate, (R)-3-Hydroxybutyric acid], the “rats with increased lifespan” value [8] was no less than 38.5%, the motor function [9] was “increased motor function” and the “decrease in fat mass” value [10] was greater than 10%. For the same compound, the lean mass [10] was “maintaining lean mass”, the LPL levels (Lipoprotien lipase (LPL)) was “decreases LPL levels” and the “C-reactive protein levels after administration” value (C-reactive protein) was 4.4. For the same compound, the “fasting glucose after administration” value [11] was 95, the perceived exertion [1] was “perceived exertion improvement” and the “blood ketone levels compared with D,L-beta-hydroxybutyrate” value ([1]; five healthy individuals) was “increased more than double”. The “performance (improvement in time) compared with D,L-beta-hydroxybutyrate” value ([1]; improvement over placebo) was “increased by more than double”, the “superoxide dismutase 2 levels (SOD) in the brain” value (superoxide dismutase 2) was “numerically increase superoxide dismutase 2 levels” and the “reduction of RER relative to D,L-beta-hydroxybutyrate” value ([3]; 10 g) was “approximately 3 ×”. The “improvement of perceived energy relative to D,L-beta-hydroxybutyrate” value ([12]; 0 to 30 minutes post consumption, 5 g-10 g) was “double that of D,L-beta-hydroxybutyrate”, the “raise of perceived energy” value ([12]; 5 g-10 g) was 18% and the “improvement of satiety levels relative to DL-beta-hydroxybutyrate” value ([12]; 30 minutes post consumption, relative to baseline, 5 g-10 g) was 2.3 ×. For the same compound, the “raise of perceived energy relative to peak increase with DL-beta-hydroxybutyrate” value ([12]; in vivo) was “more than 2 times”, the “time for which raised perceived energy was sustained” value ([12]; post ingestion) was 2 h and the “increase in minimum power” value [4] was 26%. For the same compound, the “increase in Bench Press test result” value [4, 14] was 11%, the “Horizontal Saccades, improvement relative to D,L-beta-hydroxybutyrate” value ([5]; e.g. 5 g) was 4 times and the “Horizontal Saccades, performance improvement” value ([5]; e.g. 5 g) was 13.8%. For the same compound, the “improvement of processing speed” value ([5]; e.g. 5 g) was 27.7%, the “increase of response accuracy” value ([5]; e.g. 5 g) was 37 percentage points and the “Circular Tracking, improvement in tracking accuracy” value ([5]; e.g. 10 g) was “approximately 3%”. For the same compound, the “Vertical Tracking, improvement of performance” value ([5]; e.g. 10 g) was 13.8% and the “Vertical Tracking, improvement relative to D,L-beta-hydroxybutyrate” value ([5]; e.g. 10 g) was “approximately 3 times”.

For C[C@@H](O)CC(=O)[O-].[Na+] [sodium R-beta-hydroxybutyrate], the “blood ketone level compared with 10 g of D,L-beta-hydroxybutyrate” value [13] was “approximately the same blood ketone level”.
